Measured values: US20210278408A1, “METHODS OF TREATMENT OF CANCER WITH SUBSTITUTED PYRROLE AND PYRAZOLE COMPOUNDS AND DIAGNOSIS OF CANCERS SUSCEPTIBLE TO TREATMENT WITH SUBSTITUTED PYRROLE AND PYRAZOLE COMPOUNDS” (Bantam Pharmaceutical, LLC, priority 2018, published 2021)
Like-named read-outs stand apart in the source and are kept apart here.

Test system: 407 cancer cell lines
Test: Cell viability of cancer cell lines (IC50), CellTiter-Glo Viability Assay, 96 h
Assay type: cell-based
Conditions: for IC50: read-out: Absolute IC50
Method: Viability was determined by using the 50% inhibitory concentration (IC50) as determined with the CellTiter-Glo® Viability Assay (Promega).
Experiments were initiated by first thawing and equilibrating the CellTiter-Glo® Buffer to room temperature. The lyophilized CellTiter-Glo® Substrate was also equilibrated to room temperature. The lyophilized substrate was reconstituted with the CellTiter-Glo® buffer to form the CellTiter-Glo® Reagent.
Cells were harvested during the logarithmic growth period, counted, and the cell concentration adjusted to 4.44×10^4 cells/mL using culture medium.
Cells were allowed to grow overnight and the following day, the TO reading was obtained by adding 10 μL culture medium to each well of Plate A. The plate was allowed to equilibrate at room temperature for thirty minutes, after which 50 μL CellTiter-Glo® reagent was added to each well. The contents were mixed for 5 min on an orbital shaker to induce cell lysis. Plates were incubated for 20 minutes to stabilize the luminescent signal and the TO luminescence recorded.
Test plate B was incubated for 96 h in the humidified incubator at 37° C. with 5% CO2.
Following the incubation, the plate was equilibrated at room temperature for thirty minutes. CellTiter-Glo® (50 μL) was added to each well of the plate and contents mixed for five minutes on an orbital shaker to induce cell lysis. The luminescent signal was allowed to stabilize at room temperature for 20 minutes and the luminescence recorded.
IC50 (EC50) was calculated using a dose-response curve, fitted using a nonlinear regression model with a sigmoidal dose response. Survival rate was calculated using the formula:
The Surviving rate (%)=(LumTest article−LumMedium control)/(LumNon-treated−LumMedium control)×100%.
Absolute IC50 (EC50) was calculated according to the dose-response curve generated by the statistical software (GraphPad Prism 5.0).

Structure (SMILES): Cc1nn(-c2nc(-c3ccc(C(F)(F)F)cc3)c(SC(C)C)s2)c(C(=O)O)c1-c1cccc(F)c1 [Compound A197, 4-(3-fluorophenyl)-1-(5-(isopropylthio)-4-(4-(trifluoromethyl)phenyl)thiazol-2-yl)-3-methyl-1H-pyrazole-5-carboxylic acid]
- IC50 (HBL1, HBL-1): 710 nM
- % inhibition at top conc. (HCC827 cells, 96 h): 63.74%
- IC50 (HCC1500, HCC1500): > 30000 nM
- % inhibition at top conc. (HCC2218, 96 h): 33.43%
- % inhibition at top conc. (HCC4006, 96 h): 60.70%
- IC50 (HCCC9810, HCCC-9810): > 30000 nM
- % inhibition at top conc. (HCCLM3 cells, 96 h): 29.79%
- % inhibition at top conc. (HGC-27 cells, 96 h): 90.57%
- IC50 (HLF, 96 h, HLF cells, 96 h): > 30000 nM
- % inhibition at top conc. (HM-7, 96 h): 43.55%
- % inhibition at top conc. (HT-1080, 96 h): 68.42%
- % inhibition at top conc. (Hep G2/C3A, 96 h): 23.83%
- IC50 (HepG2/C3A, 96 h, Hep G2/C3A, 96 h): > 30000 nM
- IC50 (Homo sapiens, 22Rv1, 96 h, 22Rv1 cells, 96 h): 430 nM
- IC50 (Homo sapiens, 769-P, 96 h, 769-P cells, 96 h): 1040 nM
- IC50 (Homo sapiens, 786-0, 96 h, 786-O cells, 96 h): 1150 nM
- IC50 (Homo sapiens, 8505C): > 30000 nM
- IC50 (Homo sapiens, A 172, 96 h, A-172 cells, 96 h): > 30000 nM
- IC50 (Homo sapiens, A204, 96 h, A-204 cells, 96 h): > 30000 nM
- IC50 (Homo sapiens, A253, 96 h, A253 cells, 96 h): > 30000 nM
- IC50 (Homo sapiens, A498, 96 h, A498 cells, 96 h): 860 nM
- IC50 (Homo sapiens, A549, 96 h, A549 cells, 96 h): 1040 nM
- IC50 (Homo sapiens, A673, 96 h, A-673 cells, 96 h): 680 nM
- IC50 (Homo sapiens, A2058, 96 h): > 30000 nM
- IC50 (Homo sapiens, A2780, 96 h, A2780 cells, 96 h): 400 nM
- IC50 (Homo sapiens, A-375, 96 h): > 30000 nM
- IC50 (Homo sapiens, A-427, 96 h, A-427 cells, 96 h): > 30000 nM
- IC50 (Homo sapiens, A-431, 96 h): 1150 nM
- IC50 (Homo sapiens, ACHN, 96 h, ACHN cells, 96 h): 790 nM
- IC50 (Homo sapiens, AGS, 96 h, AGS cells, 96 h): > 30000 nM
- IC50 (Homo sapiens, AMO1, 96 h, AMO-1 cells, 96 h): 1480 nM
- IC50 (Homo sapiens, AN3-CA, 96 h, AN3 CA, 96 h): > 30000 nM
- IC50 (Homo sapiens, ARH-77, ARH-77): > 30000 nM
- IC50 (Homo sapiens, ASPC1, 96 h, AsPC-1 cells, 96 h): > 30000 nM
- IC50 (Homo sapiens, AU565, AU565): 10100 nM
- IC50 (Homo sapiens, BT-20, 96 h, BT-20 cells, 96 h): > 30000 nM
- IC50 (Homo sapiens, BT-474, 96 h, BT474 cells, 96 h): > 30000 nM
- IC50 (Homo sapiens, BT-483, BT-483): > 30000 nM
- IC50 (Homo sapiens, BT-549, 96 h, BT-549 cells, 96 h): 450 nM
- IC50 (Homo sapiens, BXPC-3, BxPC-3): 540 nM
- IC50 (Homo sapiens, C6661, 96 h, C666-1 cells, 96 h): > 30000 nM
- IC50 (Homo sapiens, C-33-A, 96 h, C-33 A cells, 96 h): > 30000 nM
- IC50 (Homo sapiens, CA46, 96 h, CA46 cells, 96 h): 600 nM
- IC50 (Homo sapiens, CAKI-2, Caki-2): > 30000 nM
- IC50 (Homo sapiens, CAL-27, 96 h, CAL-27 cells, 96 h): 3950 nM
- IC50 (Homo sapiens, CAL-51, CAL-51): 1680 nM
- IC50 (Homo sapiens, CAL-120, CAL-120): > 30000 nM
- IC50 (Homo sapiens, CAMA-1, 96 h): 690 nM
- IC50 (Homo sapiens, CAPAN-1, Capan-1): > 30000 nM
- IC50 (Homo sapiens, CCRF-CEM): 580 nM
- IC50 (Homo sapiens, CFPAC-1, CFPAC-1): > 30000 nM
- IC50 (Homo sapiens, COLO 205, 96 h): 1140 nM
- IC50 (Homo sapiens, COLO 320DM, 96 h, COLO 320DM, 96 h): 490 nM
- IC50 (Homo sapiens, Ca-Ski, 96 h, Ca Ski cells, 96 h): > 30000 nM
- IC50 (Homo sapiens, Caco-2, 96 h, Caco-2 cells, 96 h): > 30000 nM
- IC50 (Homo sapiens, Calu-1, Calu-1): 1040 nM
- IC50 (Homo sapiens, Calu-3, 96 h): 1750 nM
- IC50 (Homo sapiens, Calu-6, Calu-6): > 30000 nM
- IC50 (Homo sapiens, Caov-3, 96 h, Caov-3 cells, 96 h): > 30000 nM
- IC50 (Homo sapiens, Capan-2, Capan-2): > 30000 nM
- IC50 (Homo sapiens, DLD-1, DLD-1): 420 nM
- IC50 (Homo sapiens, DMS-53, 96 h, DMS 53 cells, 96 h): 1070 nM
